Assay results taken from ChEMBL document CHEMBL1130867, “Ascorbic acid-based inhibitors of alpha-amylases” (Bioorg Med Chem Lett, 1998).

Tests used:
Conditions in all cases: concentration not given here
Fungi = test: Inhibition of fungal alpha-amylase; parameters: concentration or dose not given beside the values
[1] = molecular target: T1, Pancreatic alpha-amylase (Homo sapiens) (UniProt P04746); test: Inhibition of pancreatic alpha-amylase; parameters: concentration or dose not given beside the values
T1 sequence (whole entry): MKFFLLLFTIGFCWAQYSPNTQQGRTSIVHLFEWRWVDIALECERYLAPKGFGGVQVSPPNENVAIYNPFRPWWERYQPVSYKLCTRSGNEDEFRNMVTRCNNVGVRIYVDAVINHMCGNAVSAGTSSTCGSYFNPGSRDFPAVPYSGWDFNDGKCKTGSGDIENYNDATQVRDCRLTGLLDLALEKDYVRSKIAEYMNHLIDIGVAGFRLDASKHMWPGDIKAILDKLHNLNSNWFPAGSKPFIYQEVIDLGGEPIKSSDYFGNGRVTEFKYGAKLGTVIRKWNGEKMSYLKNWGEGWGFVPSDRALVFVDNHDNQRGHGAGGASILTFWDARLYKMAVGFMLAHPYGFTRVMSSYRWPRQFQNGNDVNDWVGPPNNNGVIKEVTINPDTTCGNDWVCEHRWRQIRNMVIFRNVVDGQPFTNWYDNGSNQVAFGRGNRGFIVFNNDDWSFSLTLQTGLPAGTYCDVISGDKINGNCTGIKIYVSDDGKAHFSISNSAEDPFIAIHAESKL

Bacteria = test: Inhibition of Alpha-amylase; parameters: concentration or dose not given beside the values
[2] = molecular target: T2, Alpha-amylase 1A (Homo sapiens) (UniProt P0DUB6); test: Inhibition of salivary alpha-amylase
T2 sequence (whole entry): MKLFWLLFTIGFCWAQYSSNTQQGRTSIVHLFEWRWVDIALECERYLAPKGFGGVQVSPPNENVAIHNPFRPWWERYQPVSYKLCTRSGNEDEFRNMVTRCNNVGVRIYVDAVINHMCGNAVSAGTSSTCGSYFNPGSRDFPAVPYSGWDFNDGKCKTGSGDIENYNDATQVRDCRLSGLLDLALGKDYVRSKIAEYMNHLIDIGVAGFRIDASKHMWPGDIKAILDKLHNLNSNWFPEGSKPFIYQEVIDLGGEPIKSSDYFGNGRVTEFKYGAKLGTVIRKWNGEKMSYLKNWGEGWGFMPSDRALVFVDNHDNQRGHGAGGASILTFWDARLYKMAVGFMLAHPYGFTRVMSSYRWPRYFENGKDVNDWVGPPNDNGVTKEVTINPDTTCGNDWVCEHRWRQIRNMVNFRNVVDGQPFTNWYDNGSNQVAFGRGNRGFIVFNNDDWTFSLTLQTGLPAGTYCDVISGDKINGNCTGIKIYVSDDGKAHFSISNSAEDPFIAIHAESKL

[3] = tested on: Alpha-amylase (Hordeum vulgare); test: Inhibition of malt alpha-amylase; parameters: concentration or dose not given beside the values

| SMILES | inhibition (Fungi) | inhibition [1] | inhibition (Bacteria) | inhibition [2] | inhibition [3] |
| --- | --- | --- | --- | --- | --- |
| CCCCCCCCCCCCCCCC(=O)OC[C@H](O)[C@H]1OC(=O)C(O)=C1O | 70% | 88% | 84% | 69% | – |
| CC1(C)OCC(C2OC(=O)C(O)=C2O)O1 (stereo in doubt; 2b) | 91% | 99% | 93% | 98% | 93% |
| COC1=C(OC(C)=O)C(C2COC(C)(C)O2)OC1=O (centres undefined) | – | – | – | – | 9% |
| CC(=O)OCC(OC(C)=O)C1OC(O)=C(O)C1=O (centres undefined) | 91% | 99% | 92% | – | 89% |
| COC1=C(O)C(=O)OC1C1COC(C)(C)O1 (centres undefined) | 17% | 0% | 8% | – | 29% |
| CC1(C)OCC(C2OC(=O)C(O)=C2O)O1 (stereo in doubt; 2a) | 94% | 99% | 98% | 88% | 90% |

Other lines, results leading:

| inhibition (Fungi) | inhibition [1] | inhibition (Bacteria) | inhibition [2] | inhibition [3] | SMILES |
| --- | --- | --- | --- | --- | --- |
| – | – | – | – | 7% | CCC(=O)OCC(O)C1OC(=O)C(OC)=C1OC (centres undefined) |
| – | – | – | – | 3% | COC1=C(OC)C(C(O)COC(C)=O)OC1=O (centres undefined) |
| – | – | – | – | 10% | CCCC(=O)OCC(O)C1OC(=O)C(OC)=C1OC (centres undefined) |
| – | – | – | – | 4% | COC1=C(OC)C(C(O)CO)OC1=O (centres undefined) |
| – | – | – | – | 0% | COC1=C(OC)C(C(COC(C)=O)OC(C)=O)OC1=O (centres undefined) |
| – | – | – | – | 2% | COC1=C(OC)C(C2COC(C)(C)O2)OC1=O (centres undefined) |
| – | – | – | – | 9% | COC1=C(O)C(=O)OC1C(O)CO (centres undefined) |
| 98% | 100% | 99% | 100% | – | O=C1O[C@H]([C@@H](O)CO)C(O)=C1O (stereo in doubt; 1b) |
